Data: BigSolDB 2.1

Cc1cc(C(=O)O)ccc1[N+](=O)[O-]
Settings | solubility (mole fraction)
in 1,4-dioxane, 283.15 K | 0.0407
in 1,4-dioxane, 285.65 K | 0.0428
in 1,4-dioxane, 288.15 K | 0.0448
in 1,4-dioxane, 290.65 K | 0.0469
in 1,4-dioxane, 293.15 K | 0.0493
in 1,4-dioxane, 295.65 K | 0.0519
in 1,4-dioxane, 298.15 K | 0.0545
in 1,4-dioxane, 300.65 K | 0.0571
in 1,4-dioxane, 303.15 K | 0.06
in 1,4-dioxane, 305.65 K | 0.0628
in 1,4-dioxane, 308.15 K | 0.0658
in 1,4-dioxane, 310.65 K | 0.0688
in 1,4-dioxane, 313.15 K | 0.0718
in 1,4-dioxane, 315.65 K | 0.0754
in 1,4-dioxane, 318.15 K | 0.0802
in DMF, 283.15 K | 0.0677
in DMF, 285.65 K | 0.0709
in DMF, 288.15 K | 0.0754
in DMF, 290.65 K | 0.0795
in DMF, 293.15 K | 0.0845
in DMF, 295.65 K | 0.0908
in DMF, 298.15 K | 0.0975
in DMF, 300.65 K | 0.104
in DMF, 303.15 K | 0.111
in DMF, 305.65 K | 0.118
in DMF, 308.15 K | 0.126
in DMF, 310.65 K | 0.135
in DMF, 313.15 K | 0.142
in DMF, 315.65 K | 0.152
in DMF, 318.15 K | 0.162
in NMP, 283.15 K | 0.0856
in NMP, 285.65 K | 0.0872
in NMP, 288.15 K | 0.09
in NMP, 290.65 K | 0.0933
in NMP, 293.15 K | 0.0965
in NMP, 295.65 K | 0.1
in NMP, 298.15 K | 0.105
in NMP, 300.65 K | 0.109
in NMP, 303.15 K | 0.113
in NMP, 305.65 K | 0.118
in NMP, 308.15 K | 0.123
in NMP, 310.65 K | 0.128
in NMP, 313.15 K | 0.133
in NMP, 315.65 K | 0.138
in NMP, 318.15 K | 0.145
in acetone, 283.15 K | 0.0204
in acetone, 285.65 K | 0.0212
in acetone, 288.15 K | 0.022
in acetone, 290.65 K | 0.0228
in acetone, 293.15 K | 0.0238
in acetone, 295.65 K | 0.0247
in acetone, 298.15 K | 0.026
in acetone, 300.65 K | 0.0273
in acetone, 303.15 K | 0.0285
in acetone, 305.65 K | 0.0299
in acetone, 308.15 K | 0.0311
in acetone, 310.65 K | 0.0325
in acetone, 313.15 K | 0.0338
in acetone, 315.65 K | 0.0353
in acetone, 318.15 K | 0.0372
in acetonitrile, 283.15 K | 0.00255
in acetonitrile, 285.65 K | 0.00276
in acetonitrile, 288.15 K | 0.00302
in acetonitrile, 290.65 K | 0.00328
in acetonitrile, 293.15 K | 0.00355
in acetonitrile, 295.65 K | 0.00382
in acetonitrile, 298.15 K | 0.00412
in acetonitrile, 300.65 K | 0.00438
in acetonitrile, 303.15 K | 0.00469
in acetonitrile, 305.65 K | 0.00498
in acetonitrile, 308.15 K | 0.00529
in acetonitrile, 310.65 K | 0.00564
in acetonitrile, 313.15 K | 0.00598
in acetonitrile, 315.65 K | 0.00638
in acetonitrile, 318.15 K | 0.00688
in ethanol, 283.15 K | 0.00751
in ethanol, 285.65 K | 0.0078
in ethanol, 288.15 K | 0.00818
in ethanol, 290.65 K | 0.00866
in ethanol, 293.15 K | 0.00915
in ethanol, 295.65 K | 0.00964
in ethanol, 298.15 K | 0.0102
in ethanol, 300.65 K | 0.0108
in ethanol, 303.15 K | 0.0113
in ethanol, 305.65 K | 0.0119
in ethanol, 308.15 K | 0.0125
in ethanol, 310.65 K | 0.0132
in ethanol, 313.15 K | 0.0138
in ethanol, 315.65 K | 0.0146
in ethanol, 318.15 K | 0.0155
in ethyl acetate, 283.15 K | 0.0106
in ethyl acetate, 285.65 K | 0.0111
in ethyl acetate, 288.15 K | 0.0116
in ethyl acetate, 290.65 K | 0.0123
in ethyl acetate, 293.15 K | 0.0127
in ethyl acetate, 295.65 K | 0.0134
in ethyl acetate, 298.15 K | 0.014
in ethyl acetate, 300.65 K | 0.0146
in ethyl acetate, 303.15 K | 0.0153
in ethyl acetate, 305.65 K | 0.0159
in ethyl acetate, 308.15 K | 0.0167
in ethyl acetate, 310.65 K | 0.0175
in ethyl acetate, 313.15 K | 0.0185
in ethyl acetate, 315.65 K | 0.0193
in ethyl acetate, 318.15 K | 0.0205
in isopropanol, 283.15 K | 0.00877
in isopropanol, 285.65 K | 0.00915
in isopropanol, 288.15 K | 0.00966
in isopropanol, 290.65 K | 0.0102
in isopropanol, 293.15 K | 0.0108
in isopropanol, 295.65 K | 0.0115
in isopropanol, 298.15 K | 0.0122
in isopropanol, 300.65 K | 0.0129
in isopropanol, 303.15 K | 0.0136
in isopropanol, 305.65 K | 0.0143
in isopropanol, 308.15 K | 0.0151
in isopropanol, 310.65 K | 0.016
in isopropanol, 313.15 K | 0.0169
in isopropanol, 315.65 K | 0.0181
in isopropanol, 318.15 K | 0.0192
in methanol, 283.15 K | 0.00606
in methanol, 285.65 K | 0.00664
in methanol, 288.15 K | 0.00734
in methanol, 290.65 K | 0.00809
in methanol, 293.15 K | 0.00879
in methanol, 295.65 K | 0.00956
in methanol, 298.15 K | 0.0104
in methanol, 300.65 K | 0.0111
in methanol, 303.15 K | 0.012
in methanol, 305.65 K | 0.0129
in methanol, 308.15 K | 0.0137
in methanol, 310.65 K | 0.0147
in methanol, 313.15 K | 0.0158
in methanol, 315.65 K | 0.0169
in methanol, 318.15 K | 0.0184
in n-butanol, 283.15 K | 0.00676
in n-butanol, 285.65 K | 0.00725
in n-butanol, 288.15 K | 0.00789
in n-butanol, 290.65 K | 0.00844
in n-butanol, 293.15 K | 0.00913
in n-butanol, 295.65 K | 0.00994
in n-butanol, 298.15 K | 0.0108
in n-butanol, 300.65 K | 0.0116
in n-butanol, 303.15 K | 0.0125
in n-butanol, 305.65 K | 0.0134
in n-butanol, 308.15 K | 0.0144
in n-butanol, 310.65 K | 0.0153
in n-butanol, 313.15 K | 0.0163
in n-butanol, 315.65 K | 0.0174
in n-butanol, 318.15 K | 0.0188
in n-propanol, 283.15 K | 0.00726
in n-propanol, 285.65 K | 0.00765
in n-propanol, 288.15 K | 0.00815
in n-propanol, 290.65 K | 0.00866
in n-propanol, 293.15 K | 0.00914
in n-propanol, 295.65 K | 0.00966
in n-propanol, 298.15 K | 0.0103
in n-propanol, 300.65 K | 0.0109
in n-propanol, 303.15 K | 0.0115
in n-propanol, 305.65 K | 0.0121
in n-propanol, 308.15 K | 0.0129
in n-propanol, 310.65 K | 0.0137
in n-propanol, 313.15 K | 0.0145
in n-propanol, 315.65 K | 0.0155
in n-propanol, 318.15 K | 0.0164
in toluene, 283.15 K | 0.0165
in toluene, 285.65 K | 0.0174
in toluene, 288.15 K | 0.0184
in toluene, 290.65 K | 0.0191
in toluene, 293.15 K | 0.0202
in toluene, 295.65 K | 0.0211
in toluene, 298.15 K | 0.0221
in toluene, 300.65 K | 0.0231
in toluene, 303.15 K | 0.0243
in toluene, 305.65 K | 0.0253
in toluene, 308.15 K | 0.0265
in toluene, 310.65 K | 0.0279
in toluene, 313.15 K | 0.0295
in toluene, 315.65 K | 0.0314
in toluene, 318.15 K | 0.0333
